According to patent US20030170312A1, “Method for coating solid particles with a thermofusible agent, and resulting coated solid particles” (priority 2000, published 2003):

Experiment: Particle size (mean/median diameter, D50) before and after coating
Assay type: physicochemical
Excerpt: On FIG. 1, the distribution of the particles before and after coating has been represented. As shown in this figure, the set of coated particles has the same distribution as that of the uncoated particles, showing not only that the particles were evenly coated, but also that the amount of coating is less. Thus, it is observed that the mean diameter of the particles before coating is equal to 176 micrometers, while the mean diameter of the coated particles is equal to 180 micrometers. […] FIG. 2 represents in parallel the distribution of the particles before and after coating. As shown in this figure, the set of coated particles has the same distribution as those of the uncoated particles, showing not only that the particles were evenly coated, but also that the amount of coating is less. Thus, it is observed that the mean diameter of the particles before coating is equal to 60 micrometers, while the mean diameter of the coated particles is equal to 75 micrometers. The table below represents the mean size of the ibuprofen particles (D50) before and after coating. FIG. 5 represents in parallel the distribution of the particles before and after coating.

Structure (SMILES): CC(C)Cc1ccc(C(C)C(=O)O)cc1 (stereo not drawn) [5200I1014, ibuprofen]
- Mean (D50) size of the ibuprofen particles (Example 2: ibuprofen with PRECIROL in the proportion of 15%): 130.0 μm

Structure (SMILES): CC(=O)Nc1ccc(O)cc1 [compound 99292402, Paracetamol]
- Median (D50) particle size (Example 4: paracetamol with Precirol ATO 5, theoretical 6% by mass): 326.1 μm

Structure (SMILES): CC(C)Cc1ccc(C(C)C(=O)O)cc1 (stereo not drawn) [ibuprofen]
- mean diameter of the particles (Example 1: ibuprofen before and after coating with PRECIROL, coating 7% by weight): 176 micrometers
